From US20210196793A1, “Pharmaceutical Combination Comprising Epidermal Growth Factor and Secretagogue Peptide GHRP6 for the Restoration of Brain Damage” (CENTRO DE INGENIERÍA GENÉTICA Y BIOTECNOLOGÍA, priority 2018, published 2021) come the findings set out here.

This assay deals with patients with Amyotrophic Lateral Sclerosis. Put plainly: Patients with Amyotrophic Lateral Sclerosis, ALSFRS-R functional scale. In kind it is in vivo, human. To be noted: for ALSFRS-R before treatment: baseline. As for the experimental part:
Forty patients with definite diagnosis of Amyotrophic Lateral Sclerosis were treated with EGF 0.6 μg/kg of body weight, and GHRP6 60 μg/kg of body weight, intravenously, every other day, during 6 months, together with Rilutek® (Riluzole). Previously, these patients were stratified according to the origin of the disease, spinal (n=25) or bulbar (n=15). Another group of 30 patients with definite diagnosis of Amyotrophic Lateral Sclerosis, also stratified according to origin, spinal (n=21) or bulbar (n=9), were treated only with Rilutek®.
Before the beginning and after the end of the trial, all patients were evaluated using the functional scale for Amyotrophic Lateral Sclerosis (ALSFRS-R). The ALSFRS-R scale is usually used for the neurological and functional evaluation of patients with said disease. This scale includes various functional items, such as those related to language, salivation, swallowing, the ability to write, handling eating utensils, dressing and sanitizing, turning in bed, climbing stairs, and breathing.

On to `Nc1nc2ccc(OC(F)(F)F)cc2s1` [Rilutek ®, Riluzole], for which the “clinical improvement (salivation, swallowing, breathing, dysarthria)” value (after 6 months of treatment, spinal and bulbar onset) was “None of the latter was observed”. Moreover, the “ALSFRS-R after the treatment” value was determined as 33.1 ± 8.32 (bulbar origin, after 6 months of treatment) and 38.2 ± 3.34 (spinal origin, after 6 months of treatment). Besides, the ALSFRS-R before treatment (bulbar origin) is given as 35.1 ± 6.2 and the ALSFRS-R before treatment (spinal origin) is given as 38.7 ± 4.4.
